Like-named read-outs stand apart in the source and are kept apart here. One block for each compound: values may come before it.
Legend:
physchem = assay: physchem
Excerpt: Approximately 0.17 gm of Epikuron 200, 0.7 gm essential oil of sweet basil, 0.25 gm of water, and 0.25 gm of glycerol were mixed and the mixture centrifuged.
In this experiment, essential oils of ginger and sweet basil were combined to solubilize the bioactive compound ubiquinone (a coenzyme Q10) in a phospholipid-rich reversed liquid crystal.

[1] = cited from earlier work
[2] = cited from earlier work; remark: listed apart in the source
[3] = oral, intramuscular and intraperitoneal routes; cited from earlier work
[4] = Solubilizing paclitaxel in essential oils
[5] = water-solubilized hydrochloride form; cited from earlier work
[6] = free base form; cited from earlier work

Compound: COC1=C(OC)C(=O)C(C/C=C(\C)CC/C=C(\C)CC/C=C(\C)CC/C=C(\C)CC/C=C(\C)CC/C=C(\C)CC/C=C(\C)CC/C=C(\C)CC/C=C(\C)CCC=C(C)C)=C(C)C1=O [Coenzyme Q10, ubiquinone]
- solubilization in reversed bicontinuous cubic phase (physchem): solubilized
- solubilization in reversed cubic phase (physchem): fully solubilized

Compound: O=C1CN(/N=C/c2ccc(-c3ccc([N+](=O)[O-])cc3)o2)C(O)=N1 [Dantrolene sodium, dantrolene sodium]
- solubility in water [1]: ~300 µg/mL
- solubilization in reversed cubic phase (physchem): free of dantrolene crystals
- dissolution in reversed cubic liquid crystalline phase (physchem; Experiment 10: 3 mg in Epikuron 200/ascorbyl palmitate/gentisic acid/aminocaproic acid/ethanolamine/water + oil of ginger): dissolved

Compound: O=C1CN(/N=C/c2ccc(-c3ccc([N+](=O)[O-])cc3)o2)C(O)=N1 [Dantrolene, dantrolene]
- solubility in water ([1]; listed as dantrolene): approximately 150 mg/L
- solubility in simple phospholipid-water systems [2]: very low

Compound: C=CC(C)(O)CCC=C(C)C (stereo not drawn) [Linalool, linalool]
- toxicity [3]: extremely low toxicity

Compound: CCCCN1CCCCC1C(=O)Nc1c(C)cccc1C.Cl (stereo not drawn) [bupivicaine hydrochloride]
- therapeutic half life [5]: only a few hours

Second part, led by results:

- Paclitaxel solubility (w/w, approx) ([4]; in oil of bay): ~16%
- Paclitaxel solubility (w/w, approx) ([4]; in palmarosa oil): >10%
- Paclitaxel solubility (w/w, approx) ([4]; in peppermint oil): >5%
- Paclitaxel solubility (w/w, approx) ([4]; in sweet basil oil): ~7%
- Paclitaxel solubility (w/w, approx) ([4]; in thyme oil): ~10%
- solubility (physchem; oil or lipid): ≥ 5000 µg/mL
Compound: CC(=O)O[C@H]1C(=O)[C@@]2(C)[C@H]([C@H](OC(=O)c3ccccc3)[C@]3(O)C[C@H](OC(=O)[C@H](O)[C@@H](NC(=O)c4ccccc4)c4ccccc4)C(C)=C1C3(C)C)[C@]1(OC(C)=O)CO[C@@H]1C[C@@H]2O [Paclitaxel, paclitaxel]

- solubilization in liquid crystal (reversed cubic phase) (physchem): solubilized
Compound: CCCCN1CCCCC1C(=O)Nc1c(C)cccc1C (stereo not drawn) [bupivicaine]
- KOW (octanol-water partition coefficient) [6]: approximately 1500

- level solubilized in reversed cubic phase (physchem): about 2.4%
Compound: N.[Cl][Pt][Cl].c1cscn1 [trans-[Pt(II)Cl2(NH3)(thiazole)]]
